Where “and” joins values, the source holds several entries; their conditions need not be identical. Equal values may be shown once. Read-outs that look alike come from different tables or passages of the source.
What was measured:
[1] = system: Reticulitermes santonensis; conditions: comparative values, Holz als Roh- und Werkstoff 35 (1977) 233-237, table 10; cited from earlier work
[2] = system: working termites and soldier termites (Coptotermes formosanus); assay: whole plant or invertebrate; format: in vivo; conditions: for Degree of xylophagous damage in the pine tree block (0-5): after three weeks; for mortality at 0.32 ppm / mortality at 1.6 ppm / mortality at 8 ppm / mortality at 40 ppm: Coptotermes formosanus, read-out: Mortality termites after three weeks; for Mortality termites after three weeks: blocks aged four weeks at 40° C.
Procedure: Small blocks of Japanese redpine tree (2 cm×2 cm×2 cm) were soaked for one minute into the aqueous solution prepared by the similar procedure to Example 8.
After air-dried, they were kept in a constant temperature chamber at 40° C. for four weeks. Then each of the thus treated blocks was placed in a polymeric cup (10 cm diameter) containing 150 ml of sandy loam of 20% moisture content. Into each of the polymeric cups, 100 head of working termites and 10 head of soldier termites (Coptotermes formosanus) were released. After three weeks, the degree of xylophagous damage in the block and the mortality of the termites were investigated.

[3] = system: larvae of Hylotrupes bajulus; conditions: comparative values, Holz als Roh- und Werkstoff 35 (1977) 233-237, table 6; cited from earlier work
[4] = system: worker termites (Coptotermes formosanus); assay: Formicidal test: treated filter paper in petri dish, termite mortality; format: in vivo; conditions: for mortality at 0.32 ppm / mortality at 1.6 ppm / mortality at 8 ppm / mortality at 40 ppm: Coptotermes formosanus, 96 h, read-out: Mortality of termites after four days
Text: Examples of the active compounds according to the present invention • I.1: 1-(6-chloro-3-pyridylmethyl)-2-nitromethylene-imidazolidine • I.2: 3-(6-chloro-3-pyridylmethyl)-2-nitromethylene-thiazolidine • I.3: imidacloprid
Comparative compounds • A: phoxim • B: chlorpyriphos Preparation of test formulation: • Solvent: 3 parts by weight of xylene • Emulsifier: 1 part by weight of polyoxyethylene-alkylphenyl-ether
To prepare a suitable formulation of the active compound, 1 part by weight of each of the active compounds was mixed with the above-mentioned amount of the solvent containing the above-mentioned amount of the emulsifier, and the mixture was diluted with water to a predetermined concentration.
1 ml of the aqueous solution prepared in the above-mentioned procedure was uniformly applied using a pipette onto a filter paper that was placed in petri dish of 9 cm diameter. Ten head of worker termites (Coptotermes formosanus) were replaced into the petri dish and it was kept in a constant temperature chamber at 25° C.
After four days, the mortality of the termites was investigated. This test procedure was carried out in duplicate per each concentration of the active compounds under test.

[5] = system: larvae of Hylotrupes bajulus; assay: Toxic value against larvae of Hylotrupes bajulus, DIN EN 47, impregnated wood samples; format: in vivo
Text: The toxicity against larvae of Hylotorupes bajulus, using wood samples treated with the active compound I.3 […] to the detailed description of DIN EN 47 (edition 1990, Beuth Verlag GMBH) which is concerned with the European standard method prescribed by the European Committee for standardization concerning wood preservatives, determination of the toxic value against larvae of Hylotrupes bajulus.
An outline of the method is as follows: (see DIN EN 47 for detail)
Five wood-samples (50 mm×25 mm×15 mm) which are treated by the active compound beforehand (impregnation treatment in vacuum) are provided and in each specimen, a regular pattern of six holes are bored, and then one head of the larvae is inserted per a hole.
After four weeks, the specimens are cut up in turn and the number of live/dead of larvae is determined.
In determination, where a live larvae is identified in a specimen, then the remaining specimens without cutting up are stored for a further eight weeks, and afterword, the number of live/dead larvae is determined.

[6] = system: Reticulitermes santonensis; assay: Effectiveness against Reticulitermes santonensis, DIN EN 117, impregnated wood samples; format: in vivo; conditions: eight weeks, per wood sample
Procedure: The toxicity against Reticulitermes santonensis of solutions containing the active compound I.3 in chloroform having the concentrations mentioned in Example 10 was determined according to the detailed description of DIN EN 117 Edition 1981 which is concerned with the European standard method prescribed by the European Committee for standardization concerning wood preservatives, determination of the toxic value against Reticulitermes santonesis.
An outline of the method is as follows: (see DIN EN 117 for detail)
The same three wood-samples with impregnation treatment in vacuum as in Example 10 are provided.
They are exposed to 250 workers, 1 soldier and 1 nymph per batch for eight weeks, and afterword, the number of live/dead larvae is determined.
The evaluation was made by the following standard:
* rating values: • 0=no attack • 1=attempted attack • 2=slight attack • 3=average attack • 4=strong attack

[7] = 0.32 ppm active compound, filter paper, 25° C.
[8] = 1.6 ppm active compound, filter paper, 25° C.
[9] = 8 ppm active compound, filter paper, 25° C.
[10] = 40 ppm active compound, filter paper, 25° C.
[11] = 4 weeks, impregnating solution 0.00144 %, M-value 10.80 g/m^3 wood
[12] = 4 weeks, impregnating solution 0.0072 %, M-value 52.85 g/m^3 wood
[13] = 4 weeks, impregnating solution 0.0144 %, M-value 103.97 g/m^3 wood
[14] = 12 weeks, impregnating solution 0.000144 % (so in the source), M-value 0.11 g/m^3 wood
[15] = 12 weeks, impregnating solution 0.000144 %, M-value 1.08 g/m^3 wood
[16] = 12 weeks, impregnating solution 0.00144 % (remaining three specimens), M-value 10.80 g/m^3 wood
[17] = 1.44 × 10^−2% (m/m), average absorbed 136.627 g/m^3
[18] = 1.44 × 10^−3% (m/m), average absorbed 13.463 g/m^3
[19] = 1.44 × 10^−4% (m/m), average absorbed 1.344 g/m^3
[20] = 1.44 × 10^−5% (m/m), average absorbed 0.135 g/m^3
[21] = 7.20 × 10^−3% (m/m), average absorbed 68.211 g/m^3

Structure (SMILES): CCOP(=S)(OCC)O/N=C(\C#N)c1ccccc1 [A, 0-(α-cyanobenzylideneamino)0,0-diethylphosphorothioate, reference compound]
- toxic value [1]: 400 g/m^3
- Degree of xylophagous damage in the pine tree block (0-5) ([2]; 0.32 ppm): 5
- Degree of xylophagous damage in the pine tree block (0-5) ([2]; 1.6 ppm): 5
- Degree of xylophagous damage in the pine tree block (0-5) ([2]; 8 ppm): 5
- Degree of xylophagous damage in the pine tree block (0-5) ([2]; 40 ppm): 3
- mortality at 0.32 ppm [2]: 0%
- mortality at 1.6 ppm [2]: 0%
- mortality at 8 ppm [2]: 0%
- mortality at 40 ppm [2]: 25%
- toxic value [3]: 7-12 g/m^3
- mortality at 0.32 ppm [4, 7]: 90%
- mortality at 1.6 ppm [4, 8]: 100%
- mortality at 8 ppm [4, 9]: 100%
- mortality at 40 ppm [4, 10]: 100%

Structure (SMILES): CCOP(=S)(OCC)Oc1nc(Cl)c(Cl)cc1Cl [B, 0,0-diethyl-3,5,6-trichloro-2-pyridylphosphorothioate, reference compound]
- Degree of xylophagous damage in the pine tree block (0-5) ([2]; 0.32 ppm): 5
- Mortality termites after three weeks ([2]; 0.32 ppm): 0%
- Degree of xylophagous damage in the pine tree block (0-5) ([2]; 1.6 ppm): 3
- Mortality termites after three weeks ([2]; 1.6 ppm): 0%
- Degree of xylophagous damage in the pine tree block (0-5) ([2]; 8 ppm): 1
- Mortality termites after three weeks ([2]; 8 ppm): 78%
- Degree of xylophagous damage in the pine tree block (0-5) ([2]; 40 ppm): 0
- Mortality termites after three weeks ([2]; 40 ppm): 100%
- Mortality of termites after four days [4, 7]: 100%
- Mortality of termites after four days [4, 8]: 100%
- Mortality of termites after four days [4, 9]: 100%
- Mortality of termites after four days [4, 10]: 100%

Structure (SMILES): CCC(C)c1ccccc1OC(=O)NC (stereo not drawn) [Bassa (Baycarb)]
- toxic value [1]: 500 g/m^3

Structure (SMILES): CCOP(=S)(OCC)ON=C(C#N)c1ccccc1Cl [Chlorophoxim]
- toxic value [1]: 500 g/m^3

Structure (SMILES): Clc1ccc(C(c2ccc(Cl)cc2)C(Cl)(Cl)Cl)cc1 [DDT]
- toxic value [1]: >1 500 g/m^3
- toxic value [3]: 5-10 g/m^3

Structure (SMILES): ClC1=C(Cl)[C@]2(Cl)[C@@H]3[C@@H]4C[C@@H]([C@H]5O[C@@H]45)[C@@H]3[C@@]1(Cl)C2(Cl)Cl [Dieldrin]
- toxic value [1]: 50 g/m^3

Structure (SMILES): CCOP(=S)(OCC)Oc1ccc([N+](=O)[O-])cc1 [Ethylparathion]
- toxic value [1]: 200 g/m^3

Structure (SMILES): O=[N+]([O-])C=C1NCCN1Cc1ccc(Cl)nc1 [I.1, 1-(6-chloro-3-pyridylmethyl)-2-nitromethylene-imidazolidine]
- Degree of xylophagous damage in the pine tree block (0-5) ([2]; 0.32 ppm): 0.5
- Degree of xylophagous damage in the pine tree block (0-5) ([2]; 1.6 ppm): 0
- Degree of xylophagous damage in the pine tree block (0-5) ([2]; 8 ppm): 0
- Degree of xylophagous damage in the pine tree block (0-5) ([2]; 40 ppm): 0
- mortality at 0.32 ppm [2]: 98%
- mortality at 1.6 ppm [2]: 100%
- mortality at 8 ppm [2]: 100%
- mortality at 40 ppm [2]: 100%
- mortality at 0.32 ppm [4, 7]: 100%
- mortality at 1.6 ppm [4, 8]: 100%
- mortality at 8 ppm [4, 9]: 100%
- mortality at 40 ppm [4, 10]: 100%

Structure (SMILES): O=[N+]([O-])C=C1SCCN1Cc1ccc(Cl)nc1 [I.2, 3-(6-chloro-3-pyridylmethyl)-2-nitromethylene-thiazolidine]
- Degree of xylophagous damage in the pine tree block (0-5) ([2]; 0.32 ppm): 0
- Degree of xylophagous damage in the pine tree block (0-5) ([2]; 1.6 ppm): 0
- Degree of xylophagous damage in the pine tree block (0-5) ([2]; 8 ppm): 0
- Degree of xylophagous damage in the pine tree block (0-5) ([2]; 40 ppm): 0
- mortality at 0.32 ppm [2]: 100%
- mortality at 1.6 ppm [2]: 100%
- mortality at 8 ppm [2]: 100%
- mortality at 40 ppm [2]: 100%
- mortality at 0.32 ppm [4]: 100%
- mortality at 1.6 ppm [4]: 100%
- mortality at 8 ppm [4]: 100%
- mortality at 40 ppm [4]: 100%

Structure (SMILES): O=[N+]([O-])N=C1NCCN1Cc1ccc(Cl)nc1 [I.3, 1-(6-chloro-3-pyridylmethyl)-2-nitroimino-imidazolidine]
- Degree of xylophagous damage in the pine tree block (0-5) ([2]; 0.32 ppm): 0
- Degree of xylophagous damage in the pine tree block (0-5) ([2]; 1.6 ppm): 0
- Degree of xylophagous damage in the pine tree block (0-5) ([2]; 8 ppm): 0
- Degree of xylophagous damage in the pine tree block (0-5) ([2]; 40 ppm): 0
- mortality at 0.32 ppm [2]: 100%
- mortality at 1.6 ppm [2]: 100%
- mortality at 8 ppm [2]: 100%
- mortality at 40 ppm [2]: 100%
- State of the larvae at the end of the test: dead, no wood digested [5, 11]: 4
- State of the larvae at the end of the test: dead, wood digested [5, 11]: 6
- State of the larvae at the end of the test: living [5, 11]: 1
- State of the larvae at the end of the test: not found [5, 11]: 1
- State of the larvae at the end of the test: dead, no wood digested [5, 12]: 29
- State of the larvae at the end of the test: dead, wood digested [5, 12]: 1
- State of the larvae at the end of the test: living [5, 12]: 0
- State of the larvae at the end of the test: not found [5, 12]: 0
- State of the larvae at the end of the test: dead, no wood digested [5, 13]: 27
- State of the larvae at the end of the test: dead, wood digested [5, 13]: 3
- State of the larvae at the end of the test: living [5, 13]: 0
- State of the larvae at the end of the test: not found [5, 13]: 0
- State of the larvae at the end of the test: dead, no wood digested [5, 14]: 1
- State of the larvae at the end of the test: dead, wood digested [5, 14]: 4
- State of the larvae at the end of the test: living [5, 14]: 23
- State of the larvae at the end of the test: not found [5, 14]: 2
- State of the larvae at the end of the test: dead, no wood digested [5, 15]: 4
- State of the larvae at the end of the test: dead, wood digested [5, 15]: 12
- State of the larvae at the end of the test: living [5, 15]: 11
- State of the larvae at the end of the test: not found [5, 15]: 3
- State of the larvae at the end of the test: dead, no wood digested [5, 16]: 6
- State of the larvae at the end of the test: dead, wood digested [5, 16]: 11
- State of the larvae at the end of the test: living [5, 16]: 0
- State of the larvae at the end of the test: not found [5, 16]: 1
- rating [6, 17]: 0
- surviving workers [6, 17]: 0%
- rating [6, 18]: 1
- surviving workers [6, 18]: 0%
- rating [6, 19]: 1
- surviving workers [6, 19]: 0%
- rating [6, 20]: 4
- surviving workers [6, 20]: 55% and 51% and 58%
- rating [6, 21]: 0
- surviving workers [6, 21]: 0%
- mortality at 0.32 ppm [4]: 100%
- mortality at 1.6 ppm [4]: 100%
- mortality at 8 ppm [4]: 100%
- mortality at 40 ppm [4]: 100%

Structure (SMILES): Cl[C@H]1[C@H](Cl)[C@@H](Cl)[C@@H](Cl)[C@H](Cl)[C@H]1Cl [Lindan]
- toxic value [1]: 75 g/m^3

Structure (SMILES): CNC(=O)Oc1ccccc1OC(C)C [Propoxur]
- toxic value [1]: 140 g/m^3
- toxic value [3]: 18-30 g/m^3

— patent US6936624B2, “Agents for preserving technical materials against insects” (Nihon Bayer Agrochem K.K., priority 1991, dated 2005)
